# Measurements reported in patent US9359349B2, “Substituted quinazolines as kinase inhibitors” (Intellikine LLC, priority 2007, dated 2016).
# Like-named read-outs stand apart in the source and are kept apart here.
# Key:
# PI3K β (p110β/p85α) = biological target: T1, PI3K β (p110β/p85α) (Homo sapiens, UniProt P42338); test: PI3K β (p110β/p85α) inhibition assay; format: biochemical
# T1 construct: purchased Upstate
# Description: (§1) Class I PI3-Ks can be either purchased (p110α/p85α, p110β/p85α, p110δ/p85α from Upstate, and p110γ from Sigma) or expressed as previously described (Knight at al., 2004). IC50 values are measured using either a standard TLC assay for lipid kinase activity (described below) or a high-throughput membrane capture assay. Kinase reactions are performed by preparing a reaction mixture containing kinase, inhibitor (2% DMSO final concentration), buffer (25 mM HEPES, pH 7.4, 10 mM MgCl2), and freshly sonicated phosphatidylinositol (100 μg/ml). Reactions are initiated by the addition of ATP containing 10 μCi of γ-32P-ATP to a final concentration 10 or 100 μM and allowed to proceed for 5 minutes at room temperature. For TLC analysis, reactions are then terminated by the addition of 105 μl 1N HCl followed by 160 μl CHCl3:MeOH (1:1). The biphasic mixture is vortexed, briefly centrifuged, and the organic phase is transferred to a new tube using a gel loading pipette tip precoated with CHCl3. This extract is spotted on TLC plates and developed for 3-4 hours in a 65:35 solution of n-propanol: 1M acetic acid. The TLC plates are then dried, exposed to a phosphorimager screen (Storm, Amersham), and quantitated. For each compound, kinase activity is measured at 10-12 inhibitor concentrations representing two-fold dilutions from the highest concentration tested (typically, 200 μM).
# (§2) Other commercial kits or systems for assaying PI3-K activities are avaiable. The commercially available kits or systems can be used to screen for inhibitors and/or agonists of PI3-Ks including but not limited to PI 3-Kinase α, β, δ, and γ. Anr exemplary system is PI 3-Kinase (human) HTRF™ Assay from Upstate. […] Briefly, the assay is a time resolved FRET assay that indirectly measures PIP3 product formed by the activity of a PI3-K. The kinase reaction is performed in a microtitre plate (e.g., a 384 well microtitre plate). The total reaction volume is approximately 20 ul per well. In the first step, each well receives 2 ul of test compound in 20% dimethylsulphoxide resulting in a 2% DMSO final concentration. Next, approximately 14.5 ul of a kinase/PIP2 mixture (diluted in 1× reaction buffer) is added per well for a final concentration of 0.25-0.3 ug/ml kinase and 10 uM PIP2. The plate is sealed and incubated for 15 minutes at room temperature. To start the reaction, 3.5 ul of ATP (diluted in 1× reaction buffer) is added per well for a final concentration of 10 uM ATP. The plate is sealed and incubated for 1 hour at room temperature. The reaction is stopped by adding 5 ul of Stop Solution per well and then 5 ul of Detection Mix is added per well. The plate is sealed, incubated for 1 hour at room temperature, and then read on an appropriate plate reader. Data is analyzed and IC50s are generated using GraphPad Prism 5.
# PC-3 = test: Tumor cell line proliferation assay (Alamar Blue), PC-3; format: cell-based; settings: Homo sapiens; PC-3 cells
# Description: The ability of one or more subject compounds to inhibit tumor cell line proliferation is determined according to standard procedures known in the art. For instance, an in vitro cellular proliferation assay can be performed to measure the metabolic activity of live cells. The assay is performed in a 96 well microtiter plate using Alamar Blue reduction. Human tumor cell lines are obtained from ATCC (e.g., MCF7, U-87 MG, MDA-MB-468, PC-3), grown to confluency in T75 flasks, trypsinized with 0.25% trypsin, washed one time with Tumor Cell Media (DMEM+10% FBS), and plated in 90 ul at 5,000 cells/well in Tumor Cell Media. A compound disclosed herein is diluted in Tumor Cell Media and added in a 10 ul volume. Plates are incubated for 72 hours at 37 C and 5% CO2. A volume of 10 uL of Alamar Blue reagent is added to each well and plates are incubated for 3 hours at 37 C and 5% CO2. Alamar Blue fluoresce is read at 560Ex/590Em, and IC50 values are calculated using GraphPad Prism 5.
# PI3K α (p110α/p85α) = biological target: T2, PI3K α (p110α/p85α) (Homo sapiens, UniProt P42336); test: PI3K α (p110α/p85α) inhibition assay; format: biochemical
# T2 construct: purchased Upstate
# Description: as §1, §2
# PI3K γ (p110γ) = biological target: T3, PI3K γ (p110γ) (Homo sapiens, UniProt P48736); test: PI3K γ (p110γ) inhibition assay; format: biochemical
# T3 construct: purchased Sigma
# Description: as §1, §2
# PI3K δ (p110δ/p85α) = biological target: T4, PI3K δ (p110δ/p85α) (Homo sapiens, UniProt O00329); test: PI3K δ (p110δ/p85α) inhibition assay; format: biochemical
# T4 construct: purchased Upstate
# Description: as §1, with “IC50” for “Class I PI3-Ks can be either purchased (p110α/p85α, p110β/p85α, p110δ/p85α from Upstate, and p110γ from Sigma) or expressed as previously described (Knight at al., 2004). IC50”, “quantitated.” for “quantitated. For each compound, kinase activity is measured at 10-12 inhibitor concentrations representing two-fold dilutions from the highest concentration tested (typically, 200 μM).”
# as §2
# mTOR = biological target: T5, mTOR (Homo sapiens, UniProt P42345); test: mTOR inhibition assay; format: biochemical
# T5 construct: purchased Invitrogen
# Description: The compounds described herein can be tested against recombinant mTOR (Invitrogen) in an assay containing 50 mM HEPES, pH 7.5, 1 mM EGTA, 10 mM MgCl2, 2.5 mM, 0.01% Tween, 10 μM ATP (2.5 μCi of […]), and 3 μg/mL BSA. Rat recombinant PHAS-1/4EBP1 (Calbiochem; 2 mg/mL) is used as a substrate. Reactions are terminated by spotting onto nitrocellulose, which is washed with 1M NaCl/1% phosphoric acid (approximately 6 times, 5-10 minutes each). Sheets are dried and the transferred radioactivity quantitated by phosphorimaging.
# Other kits or systems for assaying mTOR activity are commercially avaiable. For instance, one can use Invitrogen's LanthaScreen™ Kinase assay to test the inhibitors of mTOR disclosed herein. This assay is a time resolved FRET platform that measures the phosphorylation of GFP labeled 4EBP1 by mTOR kinase. The kinase reaction is performed in a white 384 well microtitre plate. The total reaction volume is 20 ul per well and the reaction buffer composition is 50 mM HEPES pH7.5, 0.01% Polysorbate 20, 1 mM EGTA, 10 mM MnCl2, and 2 mM DTT. In the first step, each well receives 2 ul of test compound in 20% dimethylsulphoxide resulting in a 2% DMSO final concentration. Next, 8 ul of mTOR diluted in reaction buffer is added per well for a 60 ng/ml final concentration. To start the reaction, 10 ul of an ATP/GFP-4EBP1 mixture (diluted in reaction buffer) is added per well for a final concentration of 10 uM ATP and 0.5 uM GFP-4EBP1. The plate is sealed and incubated for 1 hour at room temperature. The reaction is stopped by adding 10 ul per well of a Tb-anti-pT46 4EBP1 antibody/EDTA mixture (diluted in TR-FRET buffer) for a final concentration of 1.3 nM antibody and 6.7 mM EDTA. The plate is sealed, incubated for 1 hour at room temperature, and then read on a plate reader set up for LanthaScreen™ TR-FRET. Data is analyzed and IC50s are generated using GraphPad Prism 5.
# T3 sequence (P48736 whole entry): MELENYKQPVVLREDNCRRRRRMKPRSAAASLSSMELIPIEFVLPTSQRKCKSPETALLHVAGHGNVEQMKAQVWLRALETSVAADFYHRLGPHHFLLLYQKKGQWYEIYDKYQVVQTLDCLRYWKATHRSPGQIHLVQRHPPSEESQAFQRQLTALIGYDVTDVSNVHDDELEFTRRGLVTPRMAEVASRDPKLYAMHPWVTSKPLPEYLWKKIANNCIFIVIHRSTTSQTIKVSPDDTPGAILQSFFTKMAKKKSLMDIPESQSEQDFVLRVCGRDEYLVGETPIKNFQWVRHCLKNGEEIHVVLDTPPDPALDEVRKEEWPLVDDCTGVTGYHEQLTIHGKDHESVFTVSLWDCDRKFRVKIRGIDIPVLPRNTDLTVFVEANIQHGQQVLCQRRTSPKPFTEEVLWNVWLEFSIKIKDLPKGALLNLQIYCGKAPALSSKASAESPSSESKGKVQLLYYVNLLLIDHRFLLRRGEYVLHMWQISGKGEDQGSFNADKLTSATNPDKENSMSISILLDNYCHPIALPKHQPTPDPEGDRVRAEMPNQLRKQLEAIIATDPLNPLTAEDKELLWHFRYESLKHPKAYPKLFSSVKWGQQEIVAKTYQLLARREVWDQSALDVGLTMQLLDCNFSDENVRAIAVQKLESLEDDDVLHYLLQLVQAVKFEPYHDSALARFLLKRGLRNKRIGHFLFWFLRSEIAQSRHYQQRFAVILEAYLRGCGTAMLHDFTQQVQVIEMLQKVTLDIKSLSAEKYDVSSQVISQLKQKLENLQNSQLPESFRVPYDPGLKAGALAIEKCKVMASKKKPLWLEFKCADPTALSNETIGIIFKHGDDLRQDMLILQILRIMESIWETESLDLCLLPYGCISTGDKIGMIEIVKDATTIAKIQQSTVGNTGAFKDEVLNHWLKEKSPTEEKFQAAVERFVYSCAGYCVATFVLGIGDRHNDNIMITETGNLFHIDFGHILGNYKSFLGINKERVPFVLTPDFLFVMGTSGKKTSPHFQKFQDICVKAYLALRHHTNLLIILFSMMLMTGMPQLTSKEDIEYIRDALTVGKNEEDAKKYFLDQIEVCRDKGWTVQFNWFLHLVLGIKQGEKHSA
# T2 sequence (P42336 whole entry): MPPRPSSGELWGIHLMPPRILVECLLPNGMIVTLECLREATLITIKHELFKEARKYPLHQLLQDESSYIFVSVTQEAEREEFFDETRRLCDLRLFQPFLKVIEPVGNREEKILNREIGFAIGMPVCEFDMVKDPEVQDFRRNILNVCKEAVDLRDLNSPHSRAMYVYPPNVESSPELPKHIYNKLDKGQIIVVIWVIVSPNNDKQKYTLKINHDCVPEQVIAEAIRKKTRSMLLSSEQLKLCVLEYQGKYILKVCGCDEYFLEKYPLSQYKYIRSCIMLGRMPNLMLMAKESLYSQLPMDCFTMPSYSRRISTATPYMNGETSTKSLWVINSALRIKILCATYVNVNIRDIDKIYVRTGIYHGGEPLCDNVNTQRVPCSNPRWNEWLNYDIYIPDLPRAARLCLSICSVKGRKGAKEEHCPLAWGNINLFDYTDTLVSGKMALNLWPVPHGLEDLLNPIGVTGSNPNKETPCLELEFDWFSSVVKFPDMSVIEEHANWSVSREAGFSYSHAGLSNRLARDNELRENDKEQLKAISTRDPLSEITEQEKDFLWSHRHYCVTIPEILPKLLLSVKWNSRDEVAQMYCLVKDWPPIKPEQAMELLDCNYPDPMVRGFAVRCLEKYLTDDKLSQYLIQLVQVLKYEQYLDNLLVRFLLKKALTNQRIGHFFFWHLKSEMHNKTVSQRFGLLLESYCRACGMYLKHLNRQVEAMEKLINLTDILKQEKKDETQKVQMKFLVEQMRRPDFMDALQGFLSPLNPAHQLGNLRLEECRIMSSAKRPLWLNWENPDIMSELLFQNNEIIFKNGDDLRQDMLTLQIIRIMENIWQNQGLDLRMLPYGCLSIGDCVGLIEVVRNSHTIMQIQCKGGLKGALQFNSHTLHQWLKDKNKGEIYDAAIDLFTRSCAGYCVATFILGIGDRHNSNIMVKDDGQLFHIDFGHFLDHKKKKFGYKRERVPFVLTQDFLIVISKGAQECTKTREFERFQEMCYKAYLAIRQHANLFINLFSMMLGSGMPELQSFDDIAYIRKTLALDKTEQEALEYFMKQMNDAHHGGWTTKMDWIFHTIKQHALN
# T2 sequence (P27986 whole entry partner): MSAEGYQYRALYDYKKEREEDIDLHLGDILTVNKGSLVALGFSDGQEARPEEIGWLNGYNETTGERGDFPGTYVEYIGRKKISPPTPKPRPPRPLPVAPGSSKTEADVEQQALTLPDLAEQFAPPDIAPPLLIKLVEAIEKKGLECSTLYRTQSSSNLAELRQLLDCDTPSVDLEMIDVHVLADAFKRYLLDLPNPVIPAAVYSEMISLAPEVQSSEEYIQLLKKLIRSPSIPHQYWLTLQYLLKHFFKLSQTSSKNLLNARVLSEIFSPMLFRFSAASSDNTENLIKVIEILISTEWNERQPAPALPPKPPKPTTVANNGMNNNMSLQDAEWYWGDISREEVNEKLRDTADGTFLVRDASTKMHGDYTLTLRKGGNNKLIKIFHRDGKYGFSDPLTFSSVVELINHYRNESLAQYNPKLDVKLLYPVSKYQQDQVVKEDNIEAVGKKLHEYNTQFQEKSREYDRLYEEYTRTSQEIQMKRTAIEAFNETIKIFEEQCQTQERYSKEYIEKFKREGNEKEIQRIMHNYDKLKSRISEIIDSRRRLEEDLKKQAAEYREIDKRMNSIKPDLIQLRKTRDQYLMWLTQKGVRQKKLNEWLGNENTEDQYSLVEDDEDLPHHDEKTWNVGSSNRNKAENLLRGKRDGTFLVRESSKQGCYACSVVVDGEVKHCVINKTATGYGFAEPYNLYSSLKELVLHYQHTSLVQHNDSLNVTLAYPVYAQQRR
# T5 sequence (P42345 1360-2549 limits assumed): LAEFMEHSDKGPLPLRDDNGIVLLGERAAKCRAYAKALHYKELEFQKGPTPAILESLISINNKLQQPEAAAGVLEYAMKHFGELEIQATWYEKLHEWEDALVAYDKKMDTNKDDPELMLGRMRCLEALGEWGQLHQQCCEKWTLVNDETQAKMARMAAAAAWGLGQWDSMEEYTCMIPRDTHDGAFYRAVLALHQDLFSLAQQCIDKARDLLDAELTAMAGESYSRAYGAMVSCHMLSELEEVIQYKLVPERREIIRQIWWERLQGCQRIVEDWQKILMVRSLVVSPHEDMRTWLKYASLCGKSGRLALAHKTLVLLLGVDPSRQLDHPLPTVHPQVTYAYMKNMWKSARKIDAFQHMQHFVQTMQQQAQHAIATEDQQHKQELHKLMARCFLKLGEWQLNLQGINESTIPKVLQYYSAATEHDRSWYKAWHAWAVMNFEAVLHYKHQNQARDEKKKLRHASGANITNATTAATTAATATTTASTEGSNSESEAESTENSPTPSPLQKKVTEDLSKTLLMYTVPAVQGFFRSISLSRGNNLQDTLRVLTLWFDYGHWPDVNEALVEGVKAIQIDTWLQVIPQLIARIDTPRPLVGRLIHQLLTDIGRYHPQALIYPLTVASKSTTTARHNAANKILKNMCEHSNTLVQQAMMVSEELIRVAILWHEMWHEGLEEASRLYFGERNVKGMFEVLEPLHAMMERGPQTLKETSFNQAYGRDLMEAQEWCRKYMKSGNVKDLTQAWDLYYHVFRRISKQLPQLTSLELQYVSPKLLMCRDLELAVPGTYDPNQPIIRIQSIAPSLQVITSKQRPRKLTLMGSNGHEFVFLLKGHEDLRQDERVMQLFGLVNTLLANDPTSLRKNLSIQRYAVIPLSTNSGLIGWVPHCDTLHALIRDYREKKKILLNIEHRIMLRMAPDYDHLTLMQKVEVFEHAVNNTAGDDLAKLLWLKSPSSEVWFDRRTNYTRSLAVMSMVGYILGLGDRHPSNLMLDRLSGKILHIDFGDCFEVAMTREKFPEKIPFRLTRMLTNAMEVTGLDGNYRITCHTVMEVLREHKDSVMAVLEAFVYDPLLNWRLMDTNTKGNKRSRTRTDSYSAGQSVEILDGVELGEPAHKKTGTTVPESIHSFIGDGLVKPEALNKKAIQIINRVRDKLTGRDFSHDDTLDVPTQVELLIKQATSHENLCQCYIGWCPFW
SMILES,IC50 (PI3K β (p110β/p85α)),EC50 (PC-3),IC50 (PI3K α (p110α/p85α)),IC50 (PI3K γ (p110γ)),IC50 (PI3K δ (p110δ/p85α); read-out: PI3K δ IC50),IC50 (mTOR),IC50 (PI3K δ (p110δ/p85α))
CNc1nc(C)c2cc(-c3cccc(O)c3)ccc2n1 [Compound 1],> 1 µM,≤ 50 µM,< 0.5 µM,< 0.1 µM,< 0.5 µM,> 1 µM,–
CNc1nc(C)c2cc(-c3cnc4[nH]ccc4c3)ccc2n1 [Compound 2],> 1 µM,≤ 50 µM,< 1 µM,< 0.5 µM,> 1 µM,> 1 µM,–
Nc1ncc2cc(-c3cccc(O)c3)ccc2n1 [Compound 3],–,≤ 50 µM,< 0.5 µM,–,–,> 1 µM,–
Cc1nc(N)nc2ccc(-c3cccc(O)c3)cc12 [Compound 4],< 0.5 µM,≤ 20 µM,< 0.5 µM,< 0.1 µM,< 0.1 µM,> 1 µM,–
Cc1nc(N)nc2ccc(-c3cnc4[nH]ccc4c3)cc12 [Compound 5],–,≤ 50 µM,< 1 µM,–,–,> 1 µM,–
Cc1nc(Nc2cccnc2)nc2ccc(-c3cccc(O)c3)cc12 [Compound 6],> 1 µM,≤ 50 µM,< 0.1 µM,< 0.1 µM,< 0.1 µM,> 1 µM,–
Cc1nc(Nc2cccnc2)nc2ccc(-c3cc(O)cc(F)c3)cc12 [Compound 7],> 1 µM,≤ 20 µM,< 0.1 µM,< 0.1 µM,< 0.1 µM,> 1 µM,–
CNc1nc(C)c2cc(-c3cc(O)cc(F)c3)ccc2n1 [Compound 8],< 1 µM,≤ 20 µM,< 0.5 µM,< 0.1 µM,–,> 1 µM,< 0.1 µM
CNc1nc(C)c2cc(-c3ccc(F)c(O)c3)ccc2n1 [Compound 9],–,≤ 20 µM,< 1 µM,–,–,> 1 µM,–
CNc1nc(C)c2cc(-c3ccc(O)c(Cl)c3)ccc2n1 [Compound 10],–,≤ 20 µM,< 1 µM,–,–,> 1 µM,–
CNc1nc(C)c2cc(-c3ccc(O)c(F)c3)ccc2n1 [Compound 11],–,≤ 50 µM,< 1 µM,–,–,> 1 µM,–
